Assay results as given in ChEMBL document CHEMBL2069165, “Synthesis and evaluation of substituted hexahydronaphthalenes as novel inhibitors of the Mcl-1/BimBH3 interaction” (Bioorg Med Chem Lett, 2012).

Key:
[1] = Solubility of the compound in human MDA-MB-468 cell culture medium at >100 uM; assay type: physicochemical
[2] = target: T1, Induced myeloid leukemia cell differentiation protein Mcl-1/Bcl-2-like protein 11 (Homo sapiens) (UniProt Q07820+O43521); assay: Inhibition of GST-Mcl-1/BH3 domain of Bim interaction in human MDA-MB-468 cells at 25 uM after 24 hrs by Western blotting relative to control; assay type: cell-based
[3] = target: Induced myeloid leukemia cell differentiation protein Mcl-1/Bcl-2-like protein 11 (Homo sapiens, UniProt Q07820); assay: Inhibition of GST-Mcl-1/BH3 domain of Bim interaction after 1 hr by ELISA; assay type: protein assay
[4] = target: T1, Induced myeloid leukemia cell differentiation protein Mcl-1/Bcl-2-like protein 11 (Homo sapiens); assay: Inhibition of GST-Mcl-1/BH3 domain of Bim interaction in human MDA-MB-468 cells at 50 uM after 24 hrs by Western blotting relative to control; assay type: cell-based
[5] = test system: MDA-MB-468; assay: Growth inhibition of human MDA-MB-468 cells at 100 uM after 72 to 120 hrs by MTT assay; assay type: functional; conditions: read-out: GI
[6] = target: T1, Induced myeloid leukemia cell differentiation protein Mcl-1/Bcl-2-like protein 11 (Homo sapiens); assay: Inhibition of GST-Mcl-1/BH3 domain of Bim interaction at 25 uM after 1 hr by ELISA; assay type: protein assay

T1 sequence (O43521 whole entry, looked up, the tested form may be a part): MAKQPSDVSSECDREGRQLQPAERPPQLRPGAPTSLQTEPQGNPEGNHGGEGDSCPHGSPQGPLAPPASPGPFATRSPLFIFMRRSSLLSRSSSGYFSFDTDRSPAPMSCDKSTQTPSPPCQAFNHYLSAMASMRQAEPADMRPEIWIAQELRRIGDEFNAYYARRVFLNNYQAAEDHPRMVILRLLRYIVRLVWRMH
T1 sequence (Q07820 whole entry, looked up, the tested form may be a part): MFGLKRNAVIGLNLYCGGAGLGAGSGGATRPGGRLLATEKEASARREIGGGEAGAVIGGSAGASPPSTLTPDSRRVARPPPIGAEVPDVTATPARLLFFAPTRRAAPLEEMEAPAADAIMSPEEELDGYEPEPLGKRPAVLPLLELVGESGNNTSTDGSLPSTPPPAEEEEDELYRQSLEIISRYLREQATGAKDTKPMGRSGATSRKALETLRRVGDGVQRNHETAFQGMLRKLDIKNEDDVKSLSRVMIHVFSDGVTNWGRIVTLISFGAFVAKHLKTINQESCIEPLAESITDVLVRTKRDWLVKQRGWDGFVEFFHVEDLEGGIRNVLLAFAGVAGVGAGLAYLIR
Induced myeloid leukemia cell differentiation protein Mcl-1/Bcl-2-like protein 11, sequence (Q07820 whole entry, the tested form may be a part): as the sequence (Q07820 whole entry, looked up, the tested form may be a part) above
Induced myeloid leukemia cell differentiation protein Mcl-1/Bcl-2-like protein 11, sequence (O43521 whole entry, further chain, the tested form may be a part): as the sequence (O43521 whole entry, looked up, the tested form may be a part) above

C=C(C)CNC(=O)C(C)(C)C1C=CC2(COCOC)C(C=C(C)CC2OC(=O)Nc2cccc(Cl)c2)C1 (racemic)
solubility [1]: Insoluble | inhibition [2]: 70.6% | IC50 [3]: 8.3 µM | inhibition [4]: 46.4% | inhibition of growth at 100 µM [5]: 80% | inhibition [6]: 74.3%

C=C(C)CNC(=O)C(C)(C)[C@@H]1C=C[C@@]2(COCOC)[C@@H](OC(=O)Nc3ccccc3)CC(C)=C[C@H]2C1 (relative stereo)
inhibition [6]: 61.8%

COCOC[C@@]12C=C[C@@H](C(C)(C)C(=O)NCc3ccc(Br)cc3)C[C@@H]1C=C(C)C[C@@H]2OC(=O)NC1CCCCC1 (relative stereo)
IC50 [3]: 17 µM | inhibition [6]: 64.4%

COCOC[C@@]12C=C[C@@H](C(C)(C)C(=O)N3CCOCC3)C[C@@H]1C=C(C)C[C@@H]2OC(=O)NC1CCCCC1 (relative stereo)
inhibition [6]: 26.5%

COCOC[C@@]12C=C[C@@H](C(C)(C)C(=O)OCc3ccccc3)C[C@@H]1C=C(C)C[C@@H]2OCc1ccccc1
IC50 [3]: 13.1 µM | inhibition [6]: 64.9%

C=C(C)CNC(=O)C(C)(C)[C@@H]1C=C[C@@]2(COCOC)[C@@H](OC(=O)NC(C)C)CC(C)=C[C@H]2C1 (relative stereo)
inhibition [6]: 31.2%

C=C(C)CNC(=O)C(C)(C)[C@@H]1C=C[C@@]2(COCOC)[C@@H](O)CC(C)=C[C@H]2C1
inhibition [6]: 17.1%

CC(C)Cc1cc(-c2ccc(-c3ccc(CCC(=O)O)cc3CC(C)C)cc2Cc2ccccc2)ccc1OCC(=O)O
inhibition [2]: 61.9% | inhibition [4]: 55.7%

COC(=O)C(C)(C)[C@@H]1C=C[C@@]2(CO)[C@@H](O)CC(C)=C[C@H]2C1
inhibition [6]: 25%

COCOC[C@@]12C=C[C@@H](C(C)(C)C(=O)NCc3ccccc3)C[C@@H]1C=C(C)C[C@@H]2OC(=O)NC1CCCCC1 (relative stereo)
inhibition [6]: 53.9%

COCOC[C@@]12C=C[C@@H](C(C)(C)C(=O)O)C[C@@H]1C=C(C)C[C@@H]2O
inhibition [6]: 18.2%

C=C(C)CNC(=O)C(C)(C)[C@@H]1C=C[C@@]2(COCOC)[C@@H](OC(=O)NCc3ccccc3)CC(C)=C[C@H]2C1 (relative stereo)
inhibition [6]: 40.3%

C=C(C)CNC(=O)C(C)(C)[C@@H]1C=C[C@@]2(COCOC)[C@@H](OC(=O)NC3CCCCC3)CC(C)=C[C@H]2C1 (relative stereo)
inhibition [6]: 53.8%

O=C(O)CCc1ccc(-c2ccc(-c3ccc(OCC(=O)O)cc3)cc2)cc1
inhibition [2]: 96.9% | inhibition [4]: 107%

COCOC[C@@]12C=C[C@@H](C(C)(C)C(=O)OC)C[C@@H]1C=C(C)C[C@@H]2OC(=O)NC1CCCCC1
inhibition [6]: 34.8%

C=C(C)COC(=O)C(C)(C)[C@@H]1C=C[C@@]2(COCOC)[C@@H](OCC(=C)C)CC(C)=C[C@H]2C1
inhibition [6]: 31.2%

C=C(C)CNC(=O)C(C)(C)[C@@H]1C=C[C@@]2(COCOC)[C@@H](OC(=O)NC3CCCC3)CC(C)=C[C@H]2C1 (relative stereo)
inhibition [6]: 19.7%
